The nature of data set [1]: Cell viability (CCK8) assay, HDF normal cells. Conditions: human, HDF cells (normal human embryonic lung fibroblasts), CCK8, 48 h. The class given is cell-based, human. The procedure:
(§1) All cell lines were purchased from the Cell Bank of China Science Academy (Shanghai, China) and maintained in Dulbecco’s Modified Eagle Medium (DMEM) supplemented with 10% fetal bovine serum and 100 U/mL penicillin-streptomycin, and incubated at 37 °C in an atmosphere of 5% CO2. Cell viability was evaluated by the CCK8 assay kit (Dojindo Laboratories, Tokyo, Japan) according to the manufacturer’s instructions. Exponentially growing cells were seeded at 2–8 × 10^3 cells per well in 96-well culture plates for 24 h. Cells were exposed to increasing concentrations (0–80 μM) of 4, 5, 6, or 5-FU for 48 h. The equal volume of DMSO was used as the solvent control. CCK8 solution (10 μL) was added to each well and incubated for another 1–4 h. Light absorbance of the solution was measured at 450 nm (Epoch 2; BioTek Instruments, Inc. Winooski, VT, USA). The IC50 values were calculated using the GraphPad prism 7 and analyzed by fitting a curve using nonlinear regression. page 53: Figure S63. The calculated and the experimental ECD spectra of 5 and 6. Figure S64. Cytotoxic effects of compound-4,compound-5, compound-6 and 5-FU on human cancer cells (A, B, C) and normal cells (D) Cells were treated with various concentrations of compound-4,compound-5, compound-6 and 5-FU for 48 h. Cytotoxic effect of the compounds was determined by CCK8 assay. Percentages of viable cells were calculated by comparing treated and solvent control cells. Data are the mean ± S.D. of three replicates. […]

Data set [2] has as its system A549: human lung cancer cells. The experiment in a line: Cell viability (CCK8) assay, A549. The class given is cell-based. The conditions noted are these: for IC50: CCK8, 48 h. The procedure: as §1
Data set [3] has as its system KYSE30: human esophageal cancer cells. The experiment in a line: Cell viability (CCK8) assay, KYSE30. It counts as cell-based. Conditions: for cytotoxic activity (cells sensitive to compound), KYSE30: result in words. How it is done: as §1
For data set [4], the system named is BGC-823: human gastric cancer cells. The experiment in a line: Cell viability (CCK8) assay, BGC-823. The class given is cell-based. Conditions: BGC-823 cells; for cytotoxic activity (cells sensitive to compound), BGC-823: result in words; for IC50: CCK8, 48 h. How it is done: as §1
Data set [5] deals with HDF: normal human embryonic lung fibroblasts. In words: Cell viability (CCK8) assay, HDF normal cells. It counts as cell-based. The conditions noted are these: CCK8, 48 h. How it is done: as §1
[6] abbreviates: Homo sapiens, KYSE-30, CCK8, 48 h.

Where only a bound is given, the exact number is not on record here.

The values that follow come from paper PMC6983046, “Meroterpenoids from the Fungus Ganoderma sinensis and First Absolute Configuration Clarification of Zizhine H” (Molecules, 2019).

As to `C/C(=C\C[C@H](O)/C(=C/CCC1=C[C@H](c2cc(O)ccc2O)OC1=O)CO)COC(=O)/C=C/c1ccc(O)cc1` [Compound 5, (E)-(S,2E,6E)-9-((R)-5-(2,5-dihydroxyphenyl)-2-oxo-2,5-dihydrofuran-3-yl)-5-hydroxy-6-(hydroxymethyl)-2-methylnona-2,6-dien-1-yl 3-(4-hydroxyphenyl)acrylate], the IC50 at 48 h in data set [1] was more than 160 µM. The IC50 in data set [2] (Homo sapiens, A549, 48 h) was more than 160 µM; in data set [3] (setting [6]) it was 76.3 ± 1.93 µM; in data set [4] (Homo sapiens), 59.2 ± 2.73 µM. The “cytotoxic activity (cells sensitive to compound), KYSE30” value in data set [3] was “sensitive”. For the same molecule, the “cytotoxic activity (cells sensitive to compound), BGC-823” value in data set [4] is on record as “sensitive”.

The molecule `C/C(=C\CCC1=CCC[C@@](CC(=O)c2cc(O)ccc2O)(C(=O)O)OC1)COC(=O)/C=C/c1ccc(O)cc1` [(−)-2, (R)-2-(2-(2,5-dihydroxyphenyl)-2-oxoethyl)-6-((E)-5-(((E)-3-(4-hydroxyphenyl)acryloyl)oxy)-4-methylpent-3-en-1-yl)-2,3,4,7-tetrahydrooxepine-2-carboxylic acid] registered a half-maximal inhibitory concentration (IC50) at 48 h in data set [1] of more than 160 µM. In addition, the IC50 is more than 160 µM in data set [2] (Homo sapiens, A549, 48 h); more than 160 µM in data set [3] (setting [6]); more than 160 µM in data set [4] (Homo sapiens).

As to `C/C(=C/CC/C(=C/C(=O)c1cc(O)ccc1O)C(=O)O)CO` [Compound 7, (2Z,5Z)-2-(2-(2,5-dihydroxyphenyl)-2-oxoethylidene)-7-hydroxy-6-methylhept-5-enoic acid], the IC50 at 48 h in data set [1] was more than 160 µM. Besides, the IC50 in data set [2] (Homo sapiens, A549, 48 h) is more than 160 µM; in data set [3] (setting [6]) it was more than 160 µM; in data set [4] (Homo sapiens), more than 160 µM.

In the case of `C/C(=C\CC/C(=C/CC/C(=C/Cc1cc(O)ccc1O)C(=O)O)CO)COC(=O)/C=C/c1ccc(O)cc1` [Compound 3, (2Z,5Z,9E)-2-(2-(2,5-dihydroxyphenyl)ethylidene)-6-(hydroxymethyl)-11-(((E)-3-(4-hydroxyphenyl)acryloyl)oxy)-10-methylundeca-5,9-dienoic acid], the IC50 at 48 h in data set [1] is more than 160 µM. Besides, the IC50 is more than 160 µM in data set [2] (Homo sapiens, A549, 48 h); more than 160 µM in data set [3] (setting [6]); more than 160 µM in data set [4] (Homo sapiens).

For the molecule `CC(=CCCC1=CCC[C@@](CC(=O)c2cc(O)ccc2O)(C(=O)O)OC1)CO` [(−)-1, (R,E)-2-(2-(2,5-dihydroxyphenyl)-2-oxoethyl)-6-(5-hydroxy-4-methylpent-3-en-1-yl)-2,3,4,7-tetrahydrooxepine-2-carboxylic acid], in data set [1], the half-inhibitory concentration (IC50) at 48 h is more than 160 µM. For the same molecule, the 50% inhibitory concentration (IC50) was more than 160 µM in data set [2] (Homo sapiens, A549, 48 h); more than 160 µM in data set [3] (setting [6]); more than 160 µM in data set [4] (Homo sapiens).

In turn, `C/C(=C\CCC1=CCC[C@](CC(=O)c2cc(O)ccc2O)(C(=O)O)OC1)COC(=O)/C=C/c1ccc(O)cc1` [(+)-2, (S)-2-(2-(2,5-dihydroxyphenyl)-2-oxoethyl)-6-((E)-5-(((E)-3-(4-hydroxyphenyl)acryloyl)oxy)-4-methylpent-3-en-1-yl)-2,3,4,7-tetrahydrooxepine-2-carboxylic acid] displayed an IC50 at 48 h in data set [1] of more than 160 µM. In addition, the IC50 in data set [2] (Homo sapiens, A549, 48 h) was more than 160 µM; in data set [3] (setting [6]), more than 160 µM; in data set [4] (Homo sapiens), more than 160 µM.

For the molecule `CC(=CCCC1=CCC[C@](CC(=O)c2cc(O)ccc2O)(C(=O)O)OC1)CO` [(+)-1, (S,E)-2-(2-(2,5-dihydroxyphenyl)-2-oxoethyl)-6-(5-hydroxy-4-methylpent-3-en-1-yl)-2,3,4,7-tetrahydrooxepine-2-carboxylic acid], in data set [1], the IC50 at 48 h was more than 160 µM. Also, the IC50 was more than 160 µM in data set [2] (Homo sapiens, A549, 48 h); more than 160 µM in data set [3] (setting [6]); more than 160 µM in data set [4] (Homo sapiens).

In data set [1], `C/C(=C\C[C@H](O)/C(=C/CCC1=C[C@@H](c2cc(O)ccc2O)OC1=O)CO)COC(=O)/C=C/c1ccc(O)cc1` [Compound 6, (E)-(S,2E,6E)-9-((S)-5-(2,5-dihydroxyphenyl)-2-oxo-2,5-dihydrofuran-3-yl)-5-hydroxy-6-(hydroxymethyl)-2-methylnona-2,6-dien-1-yl 3-(4-hydroxyphenyl)acrylate] displayed an IC50 at 48 h of more than 160 µM. In addition, the IC50 in data set [2] (Homo sapiens, A549, 48 h) was more than 160 µM; in data set [3] (setting [6]) it was 85.4 ± 2.82 µM; in data set [4] (Homo sapiens), 64.25 ± 0.37 µM. The “cytotoxic activity (cells sensitive to compound), KYSE30” value in data set [3] is on record as “sensitive”. Also, the “cytotoxic activity (cells sensitive to compound), BGC-823” value in data set [4] is “sensitive”.

Turning to `O=c1[nH]cc(F)c(=O)[nH]1` [Compound 5-FU, reference compound], the IC50 was 51.1 ± 2.43 µM in data set [5]; 35 ± 2.42 µM in data set [2]; 8.43 ± 0.19 µM in data set [3] (CCK8, 48 h); 37.7 ± 1.87 µM in data set [4].

As to `COC(=O)/C(=C\C(=O)c1cc(O)ccc1O)CC/C=C(\CO)CC/C=C(\C)COC(=O)/C=C/c1ccc(O)cc1` [Compound 4, (2Z,5Z,9E)-methyl 2-(2-(2,5-dihydroxyphenyl)-2-oxoethylidene)-6-(hydroxymethyl)-11-(((E)-3-(4-hydroxyphenyl)acryloyl)oxy)-10-methylundeca-5,9-dienoate], the 50% inhibitory concentration (IC50) at 48 h in data set [1] is more than 160 µM. Also, the IC50 is 72.1 ± 8.7 µM in data set [2]; 63.4 to 80.8 µM in data set [2] (Homo sapiens, A549, 48 h); more than 160 µM in data set [3] (setting [6]); more than 160 µM in data set [4] (Homo sapiens). Also, the “cytotoxic activity (cells sensitive to compound), A549” value in data set [2] (result in words) was “sensitive”.

The IC50 is the concentration needed to halve the response being measured.
